Laboratory results published in the kinase profiling compilation of Christmann-Franck et al. (2016).
One block for each compound: values may come before it.

What was measured:
Assay in all cases: radiometric filter-binding kinase assay
SRPK1 (human) = SRPK1 (human) (UniProt Q96SB4)
MAPK1 (human) = MAPK1 (human) (UniProt P28482)
YES1 (human) = YES1 (human) (UniProt P07947)
JAK2 JH1 JH2 (human) = JAK2 JH1 JH2 (human) (UniProt O60674)
MKNK2 (human) = MKNK2 (human) (UniProt Q9HBH9)
MARK3 (human) = MARK3 (human) (UniProt P27448)
INSRR (human) = INSRR (human) (UniProt P14616)
BTK (human) = BTK (human) (UniProt Q06187)
MAPK14 (human) = MAPK14 (human) (UniProt Q16539)
MAP3K1 (human) = MAP3K1 (human) (UniProt Q13233)
MAP3K9 (human) = MAP3K9 (human) (UniProt P80192)
HIPK1 (human) = HIPK1 (human) (UniProt Q86Z02)
MAPKAPK3 (human) = MAPKAPK3 (human) (UniProt Q16644)
CLK2 (human) = CLK2 (human) (UniProt P49760)
[1] = tested on: RPS6KB1 (human), P23443 [T412E]
NTRK1 (human) = NTRK1 (human) (UniProt P04629)
FLT1 (human) = FLT1 (human) (UniProt P17948)
CSNK1D (human) = CSNK1D (human) (UniProt P48730)
INSR (human) = INSR (human) (UniProt P06213)
IRAK4 (human) = IRAK4 (human) (UniProt Q9NWZ3)
RPS6KA1 KD1 KD2 (human) = RPS6KA1 KD1 KD2 (human) (UniProt Q15418)
[2] = tested on: AKT2 (human), P31751 [S474D]
NEK2 (human) = NEK2 (human) (UniProt P51955)
CSNK2A1 (human) = CSNK2A1 (human) (UniProt P68400)
RIPK2 (human) = RIPK2 (human) (UniProt O43353)
MAPK15 (human) = MAPK15 (human) (UniProt Q8TD08)
RPS6KA5 KD1 KD2 (human) = RPS6KA5 KD1 KD2 (human) (UniProt O75582)
MARK4 (human) = MARK4 (human) (UniProt Q96L34)
HIPK2 (human) = HIPK2 (human) (UniProt Q9H2X6)
[3] = biological target: STK11 CAB39 STRADA (human) (UniProt Q9Y376+Q7RTN6+Q15831)
DYRK2 (human) = DYRK2 (human) (UniProt Q92630)
PRKCA (human) = PRKCA (human) (UniProt P17252)
MAPK11 (human) = MAPK11 (human) (UniProt Q15759)
AURKA (human) = AURKA (human) (UniProt O14965)
NEK6 (human) = NEK6 (human) (UniProt Q9HC98)

INSRR (human), sequence (P14616 whole entry, looked up): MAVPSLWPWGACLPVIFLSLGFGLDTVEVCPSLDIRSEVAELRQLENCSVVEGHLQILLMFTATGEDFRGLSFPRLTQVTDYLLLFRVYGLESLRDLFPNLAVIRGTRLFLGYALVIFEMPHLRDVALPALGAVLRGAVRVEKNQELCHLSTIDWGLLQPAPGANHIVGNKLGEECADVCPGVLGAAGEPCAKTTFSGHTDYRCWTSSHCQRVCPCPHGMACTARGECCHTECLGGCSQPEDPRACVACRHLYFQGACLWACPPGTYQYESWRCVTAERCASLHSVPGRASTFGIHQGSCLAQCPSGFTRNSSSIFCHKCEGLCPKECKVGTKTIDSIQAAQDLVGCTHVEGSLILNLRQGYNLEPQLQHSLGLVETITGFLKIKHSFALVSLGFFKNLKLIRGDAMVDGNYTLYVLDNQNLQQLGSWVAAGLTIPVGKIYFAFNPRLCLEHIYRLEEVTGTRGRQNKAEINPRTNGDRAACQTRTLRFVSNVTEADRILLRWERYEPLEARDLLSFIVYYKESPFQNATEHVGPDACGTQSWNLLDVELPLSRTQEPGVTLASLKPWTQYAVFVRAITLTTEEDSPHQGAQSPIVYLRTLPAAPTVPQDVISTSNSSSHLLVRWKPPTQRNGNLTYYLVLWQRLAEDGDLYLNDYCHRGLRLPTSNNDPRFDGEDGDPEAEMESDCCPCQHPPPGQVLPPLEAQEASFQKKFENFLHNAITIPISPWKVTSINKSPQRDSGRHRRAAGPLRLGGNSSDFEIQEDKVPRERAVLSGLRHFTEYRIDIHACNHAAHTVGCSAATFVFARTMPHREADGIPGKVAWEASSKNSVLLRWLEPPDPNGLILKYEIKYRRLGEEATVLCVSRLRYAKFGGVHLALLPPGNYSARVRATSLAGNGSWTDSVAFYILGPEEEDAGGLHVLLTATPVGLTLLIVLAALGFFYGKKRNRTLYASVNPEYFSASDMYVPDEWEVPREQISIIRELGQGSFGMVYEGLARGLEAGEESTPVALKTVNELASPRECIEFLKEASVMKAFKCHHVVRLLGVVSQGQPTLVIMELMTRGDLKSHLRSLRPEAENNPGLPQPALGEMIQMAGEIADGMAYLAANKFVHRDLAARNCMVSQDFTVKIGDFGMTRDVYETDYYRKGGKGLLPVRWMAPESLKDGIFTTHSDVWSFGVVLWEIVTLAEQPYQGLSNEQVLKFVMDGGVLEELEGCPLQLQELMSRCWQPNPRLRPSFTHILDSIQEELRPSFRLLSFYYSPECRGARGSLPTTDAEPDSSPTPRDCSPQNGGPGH
MAPK14 (human), sequence (Q16539 whole entry, looked up): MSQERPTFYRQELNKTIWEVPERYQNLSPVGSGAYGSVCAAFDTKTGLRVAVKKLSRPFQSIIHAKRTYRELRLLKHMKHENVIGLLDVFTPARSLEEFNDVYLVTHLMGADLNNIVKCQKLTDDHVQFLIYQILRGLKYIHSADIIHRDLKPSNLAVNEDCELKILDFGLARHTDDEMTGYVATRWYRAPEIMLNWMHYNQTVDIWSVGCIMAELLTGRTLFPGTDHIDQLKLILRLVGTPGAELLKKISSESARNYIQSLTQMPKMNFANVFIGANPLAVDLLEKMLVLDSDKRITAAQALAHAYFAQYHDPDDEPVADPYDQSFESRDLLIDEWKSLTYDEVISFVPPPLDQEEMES
MAPKAPK3 (human), sequence (Q16644 whole entry, looked up): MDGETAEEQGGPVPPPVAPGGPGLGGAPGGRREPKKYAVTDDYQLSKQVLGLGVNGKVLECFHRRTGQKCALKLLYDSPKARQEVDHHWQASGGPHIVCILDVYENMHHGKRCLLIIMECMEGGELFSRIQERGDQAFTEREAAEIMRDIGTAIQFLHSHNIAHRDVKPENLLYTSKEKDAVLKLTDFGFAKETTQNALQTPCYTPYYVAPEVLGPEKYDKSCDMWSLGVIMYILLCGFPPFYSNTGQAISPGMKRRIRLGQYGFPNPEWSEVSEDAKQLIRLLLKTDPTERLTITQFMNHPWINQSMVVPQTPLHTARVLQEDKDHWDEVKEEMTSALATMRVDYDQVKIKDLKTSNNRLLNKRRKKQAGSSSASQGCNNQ
AURKA (human), sequence (O14965 whole entry, looked up): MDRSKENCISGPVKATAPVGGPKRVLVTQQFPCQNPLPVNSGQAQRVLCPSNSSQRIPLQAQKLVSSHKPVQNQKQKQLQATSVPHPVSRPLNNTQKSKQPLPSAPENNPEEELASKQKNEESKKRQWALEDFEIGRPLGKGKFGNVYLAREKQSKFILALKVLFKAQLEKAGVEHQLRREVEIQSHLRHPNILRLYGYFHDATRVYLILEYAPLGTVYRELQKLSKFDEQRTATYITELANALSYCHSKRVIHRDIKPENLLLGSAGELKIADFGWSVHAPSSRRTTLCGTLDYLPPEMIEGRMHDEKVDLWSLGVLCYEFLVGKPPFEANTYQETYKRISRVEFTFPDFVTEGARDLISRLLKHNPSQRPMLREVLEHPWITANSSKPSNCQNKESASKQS
MAPK15 (human), sequence (Q8TD08 whole entry, looked up): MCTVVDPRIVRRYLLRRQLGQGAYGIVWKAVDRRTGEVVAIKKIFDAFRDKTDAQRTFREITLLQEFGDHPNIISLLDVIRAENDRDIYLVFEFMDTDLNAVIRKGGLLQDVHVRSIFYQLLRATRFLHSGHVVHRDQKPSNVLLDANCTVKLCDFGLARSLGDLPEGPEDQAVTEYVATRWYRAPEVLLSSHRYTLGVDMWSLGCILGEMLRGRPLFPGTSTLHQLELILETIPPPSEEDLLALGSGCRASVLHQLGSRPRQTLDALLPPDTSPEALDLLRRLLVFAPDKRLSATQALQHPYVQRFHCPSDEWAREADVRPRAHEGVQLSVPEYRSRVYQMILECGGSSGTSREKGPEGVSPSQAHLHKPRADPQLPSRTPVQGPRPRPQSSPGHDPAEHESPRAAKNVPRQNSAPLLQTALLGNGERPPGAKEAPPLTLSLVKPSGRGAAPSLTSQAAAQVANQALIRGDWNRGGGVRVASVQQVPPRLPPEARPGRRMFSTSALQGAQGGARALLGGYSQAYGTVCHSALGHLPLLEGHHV
RIPK2 (human), sequence (O43353 whole entry, looked up): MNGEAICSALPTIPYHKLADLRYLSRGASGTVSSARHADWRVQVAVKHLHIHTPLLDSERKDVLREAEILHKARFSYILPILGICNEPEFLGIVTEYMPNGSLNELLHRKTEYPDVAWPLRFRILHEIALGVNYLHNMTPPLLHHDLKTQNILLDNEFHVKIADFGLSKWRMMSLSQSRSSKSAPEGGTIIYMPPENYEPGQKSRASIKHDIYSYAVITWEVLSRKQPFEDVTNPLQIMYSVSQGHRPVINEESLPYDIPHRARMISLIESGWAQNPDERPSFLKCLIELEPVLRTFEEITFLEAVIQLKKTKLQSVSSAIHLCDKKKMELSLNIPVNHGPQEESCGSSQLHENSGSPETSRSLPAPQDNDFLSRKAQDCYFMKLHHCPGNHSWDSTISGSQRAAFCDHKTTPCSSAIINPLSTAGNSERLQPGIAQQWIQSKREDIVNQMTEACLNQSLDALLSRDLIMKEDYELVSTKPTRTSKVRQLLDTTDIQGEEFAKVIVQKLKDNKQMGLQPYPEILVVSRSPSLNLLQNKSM
IRAK4 (human), sequence (Q9NWZ3 whole entry, looked up): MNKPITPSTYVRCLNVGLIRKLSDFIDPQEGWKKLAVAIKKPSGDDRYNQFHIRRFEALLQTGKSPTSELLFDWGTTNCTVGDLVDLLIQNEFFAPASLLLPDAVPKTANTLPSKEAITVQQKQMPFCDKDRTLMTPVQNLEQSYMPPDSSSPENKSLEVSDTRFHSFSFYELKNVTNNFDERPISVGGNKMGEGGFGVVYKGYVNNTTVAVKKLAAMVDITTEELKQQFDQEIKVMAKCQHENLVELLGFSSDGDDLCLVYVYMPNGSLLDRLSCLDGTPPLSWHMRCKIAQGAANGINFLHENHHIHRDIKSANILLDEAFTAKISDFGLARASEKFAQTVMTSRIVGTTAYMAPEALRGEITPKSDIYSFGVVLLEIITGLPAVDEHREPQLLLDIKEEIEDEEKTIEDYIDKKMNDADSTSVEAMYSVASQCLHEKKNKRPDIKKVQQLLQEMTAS
DYRK2 (human), sequence (Q92630 whole entry, looked up): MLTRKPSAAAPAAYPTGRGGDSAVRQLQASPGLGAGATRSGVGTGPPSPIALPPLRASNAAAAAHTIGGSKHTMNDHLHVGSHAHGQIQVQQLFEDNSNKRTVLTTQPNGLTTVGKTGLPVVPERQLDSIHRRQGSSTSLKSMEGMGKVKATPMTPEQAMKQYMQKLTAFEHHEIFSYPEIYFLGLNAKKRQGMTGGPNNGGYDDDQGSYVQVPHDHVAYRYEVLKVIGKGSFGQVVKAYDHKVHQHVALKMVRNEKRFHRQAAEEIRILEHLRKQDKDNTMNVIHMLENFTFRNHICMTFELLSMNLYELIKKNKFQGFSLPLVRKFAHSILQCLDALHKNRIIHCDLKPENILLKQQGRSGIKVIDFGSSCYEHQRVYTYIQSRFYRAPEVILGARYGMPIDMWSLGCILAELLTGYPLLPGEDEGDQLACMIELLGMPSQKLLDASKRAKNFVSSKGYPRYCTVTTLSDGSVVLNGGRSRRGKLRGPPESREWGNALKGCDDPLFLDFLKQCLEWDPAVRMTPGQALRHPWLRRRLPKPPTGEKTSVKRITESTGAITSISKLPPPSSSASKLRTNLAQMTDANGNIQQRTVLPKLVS
MAPK1 (human), sequence (P28482 whole entry, looked up): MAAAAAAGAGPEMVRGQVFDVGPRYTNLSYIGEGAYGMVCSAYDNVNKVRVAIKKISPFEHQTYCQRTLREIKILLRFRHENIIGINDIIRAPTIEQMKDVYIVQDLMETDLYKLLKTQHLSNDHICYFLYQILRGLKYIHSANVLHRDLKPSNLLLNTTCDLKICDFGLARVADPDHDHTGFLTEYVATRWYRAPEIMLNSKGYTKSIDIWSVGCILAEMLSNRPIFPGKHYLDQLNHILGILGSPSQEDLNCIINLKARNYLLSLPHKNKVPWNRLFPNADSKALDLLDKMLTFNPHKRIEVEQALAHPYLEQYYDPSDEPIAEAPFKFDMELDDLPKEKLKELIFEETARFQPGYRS

residual activity (SRPK1 (human); compound 0.01 µM): 111%
residual activity (SRPK1 (human); compound 0.1 µM): 95%
residual activity (SRPK1 (human); compound 1.0 µM): 100%
residual activity (MAPK1 (human); compound 0.01 µM): 96%
residual activity (MAPK1 (human); compound 0.1 µM): 87%
residual activity (MAPK1 (human); compound 1.0 µM): 36%
residual activity (YES1 (human); compound 0.01 µM): 87%
residual activity (YES1 (human); compound 0.1 µM): 85%
residual activity (JAK2 JH1 JH2 (human); compound 0.01 µM): 84%
residual activity (JAK2 JH1 JH2 (human); compound 0.1 µM): 101%
residual activity (MKNK2 (human); compound 0.01 µM): 91%
residual activity (MKNK2 (human); compound 0.1 µM): 62%
residual activity (MKNK2 (human); compound 1.0 µM): 44%
residual activity (MARK3 (human); compound 0.01 µM): 98%
residual activity (MARK3 (human); compound 0.1 µM): 102%
residual activity (MARK3 (human); compound 1.0 µM): 95%
residual activity (INSRR (human); compound 0.01 µM): 104%
residual activity (INSRR (human); compound 0.1 µM): 108%
residual activity (INSRR (human); compound 1.0 µM): 113%
residual activity (BTK (human); compound 0.01 µM): 105%
residual activity (BTK (human); compound 0.1 µM): 115%
residual activity (BTK (human); compound 1.0 µM): 109%
residual activity (MAPK14 (human); compound 0.01 µM): 108%
residual activity (MAPK14 (human); compound 0.1 µM): 105%
residual activity (MAPK14 (human); compound 1.0 µM): 105%
residual activity (MAP3K1 (human); compound 0.01 µM): 112%
residual activity (MAP3K1 (human); compound 0.1 µM): 101%
residual activity (MAP3K1 (human); compound 1.0 µM): 102%
residual activity (MAP3K9 (human); compound 0.01 µM): 112%
residual activity (MAP3K9 (human); compound 0.1 µM): 117%
residual activity (MAP3K9 (human); compound 1.0 µM): 101%
residual activity (HIPK1 (human); compound 0.01 µM): 111%
residual activity (HIPK1 (human); compound 0.1 µM): 99%
residual activity (HIPK1 (human); compound 1.0 µM): 95%
residual activity (MAPKAPK3 (human); compound 0.01 µM): 105%
residual activity (MAPKAPK3 (human); compound 0.1 µM): 99%
residual activity (MAPKAPK3 (human); compound 1.0 µM): 99%
residual activity (CLK2 (human); compound 0.01 µM): 94%
residual activity (CLK2 (human); compound 0.1 µM): 100%
residual activity ([1]; compound 0.01 µM): 87%
residual activity ([1]; compound 0.1 µM): 92%
residual activity ([1]; compound 1.0 µM): 106%
residual activity (NTRK1 (human); compound 0.01 µM): 97%
residual activity (NTRK1 (human); compound 0.1 µM): 90%
residual activity (NTRK1 (human); compound 1.0 µM): 67%
residual activity (FLT1 (human); compound 0.01 µM): 65%
residual activity (FLT1 (human); compound 0.1 µM): 5%
residual activity (FLT1 (human); compound 1.0 µM): 3%
residual activity (CSNK1D (human); compound 0.01 µM): 116%
residual activity (CSNK1D (human); compound 0.1 µM): 101%
residual activity (INSR (human); compound 0.01 µM): 112%
residual activity (INSR (human); compound 0.1 µM): 116%
residual activity (INSR (human); compound 1.0 µM): 97%
residual activity (IRAK4 (human); compound 0.01 µM): 112%
residual activity (IRAK4 (human); compound 0.1 µM): 99%
residual activity (IRAK4 (human); compound 1.0 µM): 57%
residual activity (RPS6KA1 KD1 KD2 (human); compound 0.1 µM): 92%
residual activity (RPS6KA1 KD1 KD2 (human); compound 1.0 µM): 85%
residual activity ([2]; compound 0.01 µM): 105%
residual activity ([2]; compound 0.1 µM): 103%
residual activity (NEK2 (human); compound 0.01 µM): 103%
residual activity (NEK2 (human); compound 0.1 µM): 127%
residual activity (NEK2 (human); compound 1.0 µM): 105%
residual activity (CSNK2A1 (human); compound 0.01 µM): 123%
residual activity (CSNK2A1 (human); compound 0.1 µM): 121%
residual activity (CSNK2A1 (human); compound 1.0 µM): 133%
residual activity (RIPK2 (human); compound 0.01 µM): 104%
residual activity (RIPK2 (human); compound 0.1 µM): 102%
residual activity (RIPK2 (human); compound 1.0 µM): 85%
residual activity (RPS6KA5 KD1 KD2 (human); compound 0.01 µM): 108%
residual activity (RPS6KA5 KD1 KD2 (human); compound 0.1 µM): 104%
residual activity (RPS6KA5 KD1 KD2 (human); compound 1.0 µM): 104%
residual activity (MARK4 (human); compound 0.01 µM): 103%
residual activity (MARK4 (human); compound 0.1 µM): 99%
residual activity (HIPK2 (human); compound 0.01 µM): 96%
residual activity (HIPK2 (human); compound 0.1 µM): 86%
residual activity (HIPK2 (human); compound 1.0 µM): 72%
residual activity ([3]; compound 0.01 µM): 119%
residual activity ([3]; compound 0.1 µM): 120%
residual activity ([3]; compound 1.0 µM): 104%
residual activity (DYRK2 (human); compound 0.01 µM): 109%
residual activity (DYRK2 (human); compound 0.1 µM): 105%
residual activity (PRKCA (human); compound 0.01 µM): 88%
residual activity (PRKCA (human); compound 0.1 µM): 88%
residual activity (PRKCA (human); compound 1.0 µM): 92%
residual activity (MAPK11 (human); compound 0.01 µM): 88%
residual activity (MAPK11 (human); compound 0.1 µM): 93%
residual activity (MAPK11 (human); compound 1.0 µM): 98%
residual activity (AURKA (human); compound 0.01 µM): 106%
residual activity (AURKA (human); compound 0.1 µM): 103%
residual activity (AURKA (human); compound 1.0 µM): 108%
residual activity (NEK6 (human); compound 0.01 µM): 97%
residual activity (NEK6 (human); compound 0.1 µM): 90%
residual activity (NEK6 (human); compound 1.0 µM): 98%
SMILES: COc1cc(O)c2c(c1)[C@H]1OC1C[C@H](O)[C@H](O)C(=O)/C=C\C[C@H](C)OC2=O (stereo not given in full)
residual activity (MAPK15 (human); compound 0.01 µM): 80%
residual activity (MAPK15 (human); compound 0.1 µM): 27%
residual activity (MAPK15 (human); compound 1.0 µM): 11%

residual activity (SRPK1 (human); compound 0.1 µM): 104%
residual activity (SRPK1 (human); compound 1.0 µM): 87%
residual activity (MAPK1 (human); compound 0.1 µM): 84%
residual activity (MAPK1 (human); compound 1.0 µM): 57%
residual activity (YES1 (human); compound 0.1 µM): 16%
residual activity (YES1 (human); compound 1.0 µM): 7%
residual activity (JAK2 JH1 JH2 (human); compound 0.1 µM): 4%
residual activity (JAK2 JH1 JH2 (human); compound 1.0 µM): 3%
residual activity (MKNK2 (human); compound 0.1 µM): 67%
residual activity (MKNK2 (human); compound 1.0 µM): 17%
residual activity (MARK3 (human); compound 0.1 µM): 41%
residual activity (MARK3 (human); compound 1.0 µM): 16%
residual activity (INSRR (human); compound 0.1 µM): 78%
residual activity (INSRR (human); compound 1.0 µM): 35%
residual activity (BTK (human); compound 0.1 µM): 22%
residual activity (BTK (human); compound 1.0 µM): 14%
residual activity (MAPK14 (human); compound 0.1 µM): 98%
residual activity (MAPK14 (human); compound 1.0 µM): 85%
residual activity (MAP3K1 (human); compound 0.1 µM): 103%
residual activity (MAP3K1 (human); compound 1.0 µM): 92%
residual activity (MAP3K9 (human); compound 0.1 µM): 7%
residual activity (MAP3K9 (human); compound 1.0 µM): 6%
residual activity (HIPK1 (human); compound 0.1 µM): 44%
residual activity (HIPK1 (human); compound 1.0 µM): 17%
residual activity (MAPKAPK3 (human); compound 0.1 µM): 97%
residual activity (MAPKAPK3 (human); compound 1.0 µM): 81%
residual activity (CLK2 (human); compound 0.1 µM): 30%
residual activity (CLK2 (human); compound 1.0 µM): 11%
residual activity ([1]; compound 0.1 µM): 70%
residual activity ([1]; compound 1.0 µM): 28%
residual activity (NTRK1 (human); compound 0.1 µM): 32%
residual activity (NTRK1 (human); compound 1.0 µM): 11%
residual activity (FLT1 (human); compound 0.1 µM): 5%
residual activity (FLT1 (human); compound 1.0 µM): 2%
residual activity (CSNK1D (human); compound 0.1 µM): 95%
residual activity (CSNK1D (human); compound 1.0 µM): 69%
residual activity (INSR (human); compound 0.1 µM): 79%
residual activity (INSR (human); compound 1.0 µM): 21%
residual activity (IRAK4 (human); compound 0.1 µM): 64%
residual activity (IRAK4 (human); compound 1.0 µM): 20%
residual activity (RPS6KA1 KD1 KD2 (human); compound 1.0 µM): 7%
residual activity ([2]; compound 0.1 µM): 88%
residual activity ([2]; compound 1.0 µM): 77%
residual activity (NEK2 (human); compound 0.1 µM): 22%
residual activity (NEK2 (human); compound 1.0 µM): 3%
residual activity (CSNK2A1 (human); compound 0.1 µM): 33%
residual activity (CSNK2A1 (human); compound 1.0 µM): 6%
residual activity (RIPK2 (human); compound 0.1 µM): 28%
residual activity (RIPK2 (human); compound 1.0 µM): 14%
residual activity (RPS6KA5 KD1 KD2 (human); compound 0.1 µM): 76%
residual activity (RPS6KA5 KD1 KD2 (human); compound 1.0 µM): 34%
residual activity (MARK4 (human); compound 1.0 µM): 24%
residual activity (HIPK2 (human); compound 0.1 µM): 31%
residual activity (HIPK2 (human); compound 1.0 µM): 10%
residual activity ([3]; compound 0.1 µM): 119%
residual activity ([3]; compound 1.0 µM): 73%
residual activity (DYRK2 (human); compound 0.1 µM): 50%
residual activity (DYRK2 (human); compound 1.0 µM): 16%
residual activity (PRKCA (human); compound 0.1 µM): 95%
residual activity (PRKCA (human); compound 1.0 µM): 56%
residual activity (MAPK11 (human); compound 0.1 µM): 103%
residual activity (MAPK11 (human); compound 1.0 µM): 95%
residual activity (AURKA (human); compound 0.1 µM): 18%
residual activity (AURKA (human); compound 1.0 µM): 3%
residual activity (NEK6 (human); compound 0.1 µM): 89%
residual activity (NEK6 (human); compound 1.0 µM): 59%
SMILES: COc1ccc(-n2ncc3cnc(Nc4cc(OC)c(OC)c(OCCCN5CCN(C)CC5)c4)nc32)cc1
residual activity (MAPK15 (human); compound 0.1 µM): 22%
residual activity (MAPK15 (human); compound 1.0 µM): 4%
